Experimental data taken from patent publication US7258984B2, “Compositions and methods for identifying agents which regulate autolytic processes in bacteria” (priority 2001, dated 2007).

Experiments:
Assay type in all cases: cell-based, Staphylococcus aureus
[1] = system: S. aureus rat-sarA double-mutant; test: TRITON X-100-induced cell lysis, rat-sarA double mutant; settings: compared with single mutants
Method: (§1) TRITON® X-100 sensitivity was determined for rat, sarA, and rat-sarA double-mutant strains.
(§2) The effect of TRITON® X-100 on growing cells was determined by diluting cultures grown overnight to an OD650 nm of 0.1 in TSB with varying concentrations of TRITON® X-100. Cells were incubated at 37° C. with shaking and the optical density was recorded hourly for seven to eight hours.
(§3) TRITON® X-100-induced autolysis assays were conducted by diluting cultures grown overnight to an OD650 nm of 0.05 in TSB containing 1 M NaCl. Cells were allowed to grow at 37° C. with shaking until an OD650 nm of 0.7 was reached. Cells were harvested, washed twice with ice cold water and then resuspended in the same volume of 0.05 M Tris-HCl, pH 7.2, containing 0.05% TRITON® X-100. Cells were incubated at 30° C. with shaking and lysis was determined by measuring absorbance at OD600 nm at 30 minutes intervals.

[2] = system: S. aureus sarA mutant; test: TRITON X-100 sensitivity, sarA mutant
Method: as §1, §2, §3

[3] = system: S. aureus rat mutant; test: TRITON X-100 sensitivity, rat mutant
Method: as §1, §2, §3

[4] = system: S. aureus complemented strain (ACL2531); test: Penicillin-induced lysis, complemented strain (ACL2531); settings: 100 μg penicillin (3× MIC)
Method: (§4) Similar to the rat transposon mutant, the rat deletion mutant was unable to grow to an OD650 nm of 1.7 (early-stationary).
Penicillin sensitivity assays were conducted by diluting rat mutant cultures grown overnight to an OD650 nm of 0.05 in TSB containing the appropriate antibiotics to maintain selection. Cultures were grown at 37° C. with shaking to reach exponential phase (OD650 nm=0.5). […] Optical densities at 650 nm were measured every hour for eight to nine hours.

[5] = system: S. aureus rat mutant; test: Plating of antibiotic-treated cultures on agar plates without antibiotic selection (kill); settings: subinhibitory concentrations of penicillin; plated on agar without antibiotic selection
Method: (§5) Rat plays a role in regulating autolytic activity of S. aureus. […] Furthermore, inactivation of the rat locus renders the S. aureus bacteria sensitive to lysis upon growth beyond the mid-log phase. To evaluate whether the cell lysis of the rat mutant was additive to the effect of a subinhibitory concentration of penicillin, 200 ng/ml of penicillin was added to a growing culture of the rat mutant at an OD650 nm of 0.5, corresponding to the mid-log phase. […] This finding is consistent with the additive effect of penicillin upon the lytic propensity of the rat mutant late in the growth cycle. […] In comparison to the parental strain, the rat mutant with subinhibitory concentrations of penicillin has a 3-4 log kill than the parental strain with antibiotics.

[6] = system: S. aureus rat mutant; test: Penicillin sensitivity assay (growth curve, OD650 nm), rat mutant; settings: 200 ng/ml (subinhibitory) added at OD650 nm of 0.5, mid-log phase
Method: as §5
(§6) Penicillin sensitivity assays were conducted by diluting rat mutant cultures grown overnight to an OD650 nm of 0.05 in TSB containing the appropriate antibiotics to maintain selection. Cultures were grown at 37° C. with shaking to reach exponential phase (OD650 nm=0.5). Penicillin G was added to a concentration of […]. Optical densities at 650 nm were measured every hour for eight to nine hours.

[7] = system: S. aureus rat deletion mutant; test: Penicillin-induced lysis, rat deletion mutant (ACL2530); settings: 100 μg penicillin (3× MIC)
Method: as §4, §6

[8] = system: wild-type S. aureus; test: Penicillin sensitivity assay (growth curve, OD650 nm), wild-type strain; settings: 200 ng/ml (subinhibitory) added at OD650 nm of 0.5, mid-log phase
Method: as §5, §6

Row | Substance | TRITON X-100-induced cell lysis [1] | TRITON X-100 concentration at which sensitivity was displayed [2] [%] | TRITON X-100 concentration at which sensitivity was displayed [3] [%] | lysis in the presence of penicillin [4] | kill of rat mutant compared with the parental strain with antibiotics [5] | optical density as the growth cycle progressed after addition of penicillin [6] | lysis in the presence of penicillin [7] | optical density as the growth cycle progressed after addition of penicillin [8]
1 | TRITON® X-100 | more severe defect | ≥ 0.01 | ≥ 0.01 | – | – | – | – | –
2 | penicillin | – | – | – | behaved like wild-type | 3-4 log | further reduction in optical density | readily lysed | no increase in optical density
